The results in this text go back to patent US10647684B2, “2-aminopyrimidine derivatives for the treatment of viral infections” (Janssen Sciences Ireland Unlimited Company, priority 2013, dated 2020).

Common to all, as to format: cell-based
The subject of assay [1] is interferon-stimulated responsive elements (ISRE). The assay is described as follows: Activation of ISRE promoter elements by conditioned media from PBMC (HEK-ISREluc). The note with it: compound concentration applied to PBMCs overnight; supernatant on HEK-ISREluc cells 24 hours. Here is the method:
The potential of compounds to induce IFN-I was also evaluated by measuring the activation of interferon-stimulated responsive elements (ISRE) by conditioned media from PBMC. The ISRE element of sequence GAAACTGAAACT (SEQ ID NO: 1) is highly responsive to the STAT1-STAT2-IRF9 transcription factor, activated upon binding of IFN-I to their receptor IFNAR (Clontech, PT3372-5W). The plasmid pISRE-Luc from Clontech (ref. 631913) contains 5 copies of this ISRE element, followed by the firefly luciferase ORF. A HEK293 cell line stably transfected with pISRE-Luc (HEK-ISREluc) was established to profile the conditioned PBMC cell culture media.
Briefly, PBMCs were prepared from buffy coats of at least two donors using a standard Ficoll centrifugation protocol. Isolated PBMCs were resuspended in RPMI medium supplemented with 10% human AB serum and 2×10^5 cells/well were dispensed into 384-well plates containing compounds (70 μL total volume). After overnight incubation, 10 μL of supernatant was transferred to 384-well plates containing 5×10^3 HEK-ISREluc cells/well in 30 μL (plated the day before). Following 24 hours of incubation, activation of the ISRE elements was measured by assaying luciferase activity using 40 μL/well Steady Lite Plus substrate (Perkin Elmer) and measured with ViewLux ultraHTS microplate imager (Perkin Elmer). […]

Assay [2] addresses T1, human TLR7 (Homo sapiens, UniProt Q9NYK1).
T1 construct: expressed in transfected cells; host or cells: HEK293
T1 sequence (Q9NYK1 27-1049): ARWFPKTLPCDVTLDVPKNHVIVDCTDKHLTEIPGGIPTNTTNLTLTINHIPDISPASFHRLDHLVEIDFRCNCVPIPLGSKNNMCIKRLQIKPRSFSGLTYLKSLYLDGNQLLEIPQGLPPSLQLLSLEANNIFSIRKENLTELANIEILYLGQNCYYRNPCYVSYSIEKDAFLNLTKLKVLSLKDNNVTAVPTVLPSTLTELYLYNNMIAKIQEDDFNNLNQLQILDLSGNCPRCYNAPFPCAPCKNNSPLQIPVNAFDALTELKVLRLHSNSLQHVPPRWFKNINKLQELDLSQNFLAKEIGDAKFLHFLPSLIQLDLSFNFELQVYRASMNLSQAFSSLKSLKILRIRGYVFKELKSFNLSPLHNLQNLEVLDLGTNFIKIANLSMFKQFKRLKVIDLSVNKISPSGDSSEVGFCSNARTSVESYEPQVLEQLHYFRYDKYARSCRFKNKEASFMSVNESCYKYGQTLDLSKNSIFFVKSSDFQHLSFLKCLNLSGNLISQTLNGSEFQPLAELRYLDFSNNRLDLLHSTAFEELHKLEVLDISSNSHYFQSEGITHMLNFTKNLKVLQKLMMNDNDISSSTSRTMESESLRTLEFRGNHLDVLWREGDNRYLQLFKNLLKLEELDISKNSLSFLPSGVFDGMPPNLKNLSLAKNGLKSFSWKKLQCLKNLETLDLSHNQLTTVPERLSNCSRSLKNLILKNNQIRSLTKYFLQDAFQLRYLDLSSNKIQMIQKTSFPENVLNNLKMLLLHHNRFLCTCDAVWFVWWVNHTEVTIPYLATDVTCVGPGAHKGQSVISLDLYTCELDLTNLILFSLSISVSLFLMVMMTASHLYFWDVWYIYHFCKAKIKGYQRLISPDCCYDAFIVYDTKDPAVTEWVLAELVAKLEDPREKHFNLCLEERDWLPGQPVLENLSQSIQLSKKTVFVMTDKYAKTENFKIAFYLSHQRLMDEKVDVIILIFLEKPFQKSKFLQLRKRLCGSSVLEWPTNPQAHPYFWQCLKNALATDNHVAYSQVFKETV
The experiment in a line: TLR7 cellular reporter assay (HEK293, NFκB-luc). The settings on record: lowest effective concentration; HEK293 transiently transfected with TLR7 and NFκB-luc; 6 hours incubation. Here is the method:
(§1) The ability of compounds to activate human TLR7 and/or TLR8 was assessed in a cellular reporter assay using HEK293 cells transiently transfected with a TLR7 or TLR8 expression vector and NFκB-luc reporter construct.
(§2) Briefly, HEK293 cells were grown in culture medium (DMEM supplemented with 10% FCS and 2 mM Glutamine). For transfection of cells in 15 cm dishes, cells were detached with Trypsin-EDTA, transfected with a mix of CMV-TLR7 or TLR8 plasmid (1700 ng), NFκB-luc plasmid (850 ng) and a transfection reagent and incubated for 48 h at 37° C. in a humidified 5% CO2 atmosphere. Transfected cells were then washed in PBS, detached with Trypsin-EDTA and resuspended in medium to a density of 1.25×10^5 cells/mL. Forty microliters of cells were then dispensed into each well in 384-well plates, where 200 nL of compound in 100% DMSO was already present. Following 6 hours incubation at 37° C., 5% CO2, the luciferase activity was determined by adding 15 μL of Steady Lite Plus substrate (Perkin Elmer) to each well and readout performed on a ViewLux ultraHTS microplate imager (Perkin Elmer). Dose response curves were generated from measurements performed in quadruplicates. Lowest effective concentrations (LEC) values, defined as the concentration that induces an effect which is at least two fold above the standard deviation of the assay, were determined for each compound.
A general note: A reporter such as luciferase makes a cellular process visible.

Assay [3] addresses T2, human TLR8 (Homo sapiens, UniProt Q9NR97).
T2 construct: expressed in transfected cells; host or cells: HEK293
T2 sequence (Q9NR97 27-1041): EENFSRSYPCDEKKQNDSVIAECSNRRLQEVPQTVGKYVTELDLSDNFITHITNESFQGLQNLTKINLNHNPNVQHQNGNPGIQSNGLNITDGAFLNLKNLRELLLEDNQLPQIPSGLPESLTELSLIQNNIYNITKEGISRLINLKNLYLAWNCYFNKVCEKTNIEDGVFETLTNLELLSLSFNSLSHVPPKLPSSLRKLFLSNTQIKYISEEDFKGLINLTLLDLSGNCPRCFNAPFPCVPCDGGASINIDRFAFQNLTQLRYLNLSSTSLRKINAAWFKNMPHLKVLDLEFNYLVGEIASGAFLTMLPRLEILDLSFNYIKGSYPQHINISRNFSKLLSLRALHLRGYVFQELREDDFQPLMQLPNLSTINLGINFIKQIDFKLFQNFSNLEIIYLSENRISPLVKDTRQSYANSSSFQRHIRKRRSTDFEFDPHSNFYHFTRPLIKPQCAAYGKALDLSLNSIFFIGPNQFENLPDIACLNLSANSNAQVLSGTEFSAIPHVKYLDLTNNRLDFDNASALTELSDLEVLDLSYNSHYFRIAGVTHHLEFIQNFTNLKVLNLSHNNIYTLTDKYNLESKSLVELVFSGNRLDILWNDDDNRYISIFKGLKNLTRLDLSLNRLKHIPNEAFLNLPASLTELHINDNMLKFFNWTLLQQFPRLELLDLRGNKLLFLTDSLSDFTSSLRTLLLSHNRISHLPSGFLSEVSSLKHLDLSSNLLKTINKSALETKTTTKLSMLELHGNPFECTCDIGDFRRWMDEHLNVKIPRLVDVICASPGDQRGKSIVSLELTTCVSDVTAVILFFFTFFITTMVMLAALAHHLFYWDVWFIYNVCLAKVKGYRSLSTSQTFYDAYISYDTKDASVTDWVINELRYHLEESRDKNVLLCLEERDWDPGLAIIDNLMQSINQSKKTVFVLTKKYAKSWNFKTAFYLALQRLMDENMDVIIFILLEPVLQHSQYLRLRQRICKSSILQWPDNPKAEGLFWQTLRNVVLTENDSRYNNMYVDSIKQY
The assay is described as follows: TLR8 cellular reporter assay (HEK293, NFκB-luc). The settings on record: lowest effective concentration; HEK293 transiently transfected with TLR8 and NFκB-luc; 6 hours incubation. As to the method: as §1, §2

Take `CCCC[C@@H](CCS(C)(=O)=O)Nc1nc(N)ncc1OC` [Compound 1]: the “HEK-ISRE luc (LEC)” value in assay [1] is 0.65 µM. Moreover, the “Human TLR 7 (LEC)” value in assay [2] came out at 2.0 µM. In assay [3], the “Human TLR 8 (LEC)” value was 1.7 µM.
In the same order, the values of `CCCC[C@@H](CC[S+](C)[O-])Nc1nc(N)ncc1OC` (some centres unmarked) [Compound 2] are 4.8 µM, 1.4 µM and 9.2 µM.
In the case of `CCCC[C@@H](CCSC)Nc1nc(N)ncc1OC` [E], the “Human TLR 7 (LEC)” value in assay [2] is 3.9 µM. For the same molecule, in assay [3], the “Human TLR 8 (LEC)” value is 10 µM.
